Measurements taken from article PMC5399447, “Neuroprotective pentapeptide CN-105 is associated with reduced sterile inflammation and improved functional outcomes in a traumatic brain injury murine model” (Scientific Reports, 2017).

Tested on: 84 genes related to inflammatory and autoimmune processes
Experiment: Mouse Inflammatory Response and Autoimmunity PCR Array, whole brain
Assay type: in vivo
Design: key to Il9 ΔCt value, S-CN-105 / Il8ra ΔCt value, S-CN-105 / Il1rn ΔCt value, S-CN-105 / Il1f10 ΔCt value, S-CN-105 / Crp ΔCt value, S-CN-105: *: Indicate mRNA expression was below the level of detection
Conditions: brain 24 h
Protocol: Frozen, pulverized whole brain tissue was processed for RNA extraction from a separate cohort of treated and untreated injured animals on days 1 post-injury(CN-105, n = 4; vehicle, n = 3; Control(sham-operated), n = 3). Total RNA was extracted from frozen, pulverized whole brain tissue using RNeasy Lipid Tissue Mini Kit(Qiagen, Valencia, CA). RNA quantity and quality was assessed with the NanoDrop ND-1000 spectrophotometer(NanoDrop Technologies, Inc., Wilmington, DE) and by agarose gel electrophoresis. Only samples with a 260/280 ratio between 1.9–2.1, and a 260/230 ratio greater than 2.0, were further processed. First strand complementary DNA(cDNA) was generated from 2 μg total RNA using the RT[2] First strand kit(SABiosciences, Frederick, MD.)
Gene expression was measured using the Mouse Inflammatory Response and Autoimmunity PCR Array(SABiosciences, Frederick, MD), which profiles the expression of 84 genes related to inflammatory and autoimmune processes. RT-PCR was performed according to manufacturer’s instructions Quality of the cDNA and PCR efficiency was verified by housekeeping genes and RT-PCR controls included in the PCR Array.
Raw RT-PCR data were analyzed using the Web-Based PCR Array Data Analysis software(SABiosciences). ΔCt values and ΔΔCt - based fold-change were calculated from raw threshold cycle data, using beta-actin and glyceraldehyde 3-phosphate dehydrogenase(GAPDH) as internal standards for normalization. Fold changes were then normalized against sham-operated controls.

Ac-VSRRR-amide [CN-105]
Fos fold change TBI-CN-105/S-v (TBI CN-105 vs sham vehicle): 1.1 | Hdac4 fold change TBI-CN-105/S-v (TBI CN-105 vs sham vehicle): 13.9 | Ifng fold change TBI-CN-105/S-v (TBI CN-105 vs sham vehicle): 59.7 | Il1a fold change TBI-CN-105/S-v (TBI CN-105 vs sham vehicle): 37.7 | Il1b fold change TBI-CN-105/S-v (TBI CN-105 vs sham vehicle): 416.6 | Il1f10 fold change TBI-CN-105/S-v (TBI CN-105 vs sham vehicle): 352.3 | Il1r1 fold change TBI-CN-105/S-v (TBI CN-105 vs sham vehicle): −6.2 | Il1rap fold change TBI-CN-105/S-v (TBI CN-105 vs sham vehicle): −37.5 | Il1rn fold change TBI-CN-105/S-v (TBI CN-105 vs sham vehicle): 74.2 | Il6 fold change TBI-CN-105/S-v (TBI CN-105 vs sham vehicle): 13.2 | Il6ra fold change TBI-CN-105/S-v (TBI CN-105 vs sham vehicle): 47.9 | Il7 fold change TBI-CN-105/S-v (TBI CN-105 vs sham vehicle): 5569.8 | Il8ra fold change TBI-CN-105/S-v (TBI CN-105 vs sham vehicle): 196.8 | Il8rb fold change TBI-CN-105/S-v (TBI CN-105 vs sham vehicle): 658.4 | Il9 fold change TBI-CN-105/S-v (TBI CN-105 vs sham vehicle): 1155.5 | Il10 fold change TBI-CN-105/S-v (TBI CN-105 vs sham vehicle): 82.2 | Il10rb fold change TBI-CN-105/S-v (TBI CN-105 vs sham vehicle): 1.5 | Il18 fold change TBI-CN-105/S-v (TBI CN-105 vs sham vehicle): −9.5 | Il18rap fold change TBI-CN-105/S-v (TBI CN-105 vs sham vehicle): 58.6 | Il22 fold change TBI-CN-105/S-v (TBI CN-105 vs sham vehicle): 77.8 | Il22ra2 fold change TBI-CN-105/S-v (TBI CN-105 vs sham vehicle): 3448.3 | Il23a fold change TBI-CN-105/S-v (TBI CN-105 vs sham vehicle): 838.4 | Il23r fold change TBI-CN-105/S-v (TBI CN-105 vs sham vehicle): 7.2 | Itgb2 fold change TBI-CN-105/S-v (TBI CN-105 vs sham vehicle): 9.6 | Lta fold change TBI-CN-105/S-v (TBI CN-105 vs sham vehicle): 917.0 | Ltb fold change TBI-CN-105/S-v (TBI CN-105 vs sham vehicle): 75.7 | Ly96 fold change TBI-CN-105/S-v (TBI CN-105 vs sham vehicle): 19.9 | Myd88 fold change TBI-CN-105/S-v (TBI CN-105 vs sham vehicle): 8.5 | Nfatc3 fold change TBI-CN-105/S-v (TBI CN-105 vs sham vehicle): 364.7 | Nfkb1 fold change TBI-CN-105/S-v (TBI CN-105 vs sham vehicle): −3.1 | Nos2 fold change TBI-CN-105/S-v (TBI CN-105 vs sham vehicle): 1779.4 | Nr3c1 fold change TBI-CN-105/S-v (TBI CN-105 vs sham vehicle): −17.8 | Ripk2 fold change TBI-CN-105/S-v (TBI CN-105 vs sham vehicle): 30.1 | Tirap fold change TBI-CN-105/S-v (TBI CN-105 vs sham vehicle): 14.0 | Tlr1 fold change TBI-CN-105/S-v (TBI CN-105 vs sham vehicle): 15.4 | Tlr2 fold change TBI-CN-105/S-v (TBI CN-105 vs sham vehicle): 10.0 | Tlr3 fold change TBI-CN-105/S-v (TBI CN-105 vs sham vehicle): 3.9 | Tlr4 fold change TBI-CN-105/S-v (TBI CN-105 vs sham vehicle): 6.5 | Tlr5 fold change TBI-CN-105/S-v (TBI CN-105 vs sham vehicle): 2.5 | Tlr6 fold change TBI-CN-105/S-v (TBI CN-105 vs sham vehicle): 14.9 | Tlr7 fold change TBI-CN-105/S-v (TBI CN-105 vs sham vehicle): 546.2 | Tnf fold change TBI-CN-105/S-v (TBI CN-105 vs sham vehicle): 1367.7 | Tnfsf14 fold change TBI-CN-105/S-v (TBI CN-105 vs sham vehicle): 365.9 | Tollip fold change TBI-CN-105/S-v (TBI CN-105 vs sham vehicle): −3.2 | Bcl6 ΔCt value, S-CN-105 (sham + CN-105 0.05 mg/kg iv): 6.6E − 02 | C3ar1 ΔCt value, S-CN-105 (sham + CN-105 0.05 mg/kg iv): 4.1E − 03 | C3 ΔCt value, S-CN-105 (sham + CN-105 0.05 mg/kg iv): 7.0E − 04 | C4b ΔCt value, S-CN-105 (sham + CN-105 0.05 mg/kg iv): 7.0E − 03 | Ccl1 ΔCt value, S-CN-105 (sham + CN-105 0.05 mg/kg iv): 2.3E − 05 | Ccl2 ΔCt value, S-CN-105 (sham + CN-105 0.05 mg/kg iv): 8.3E − 04 | Ccl3 ΔCt value, S-CN-105 (sham + CN-105 0.05 mg/kg iv): 8.0E − 04 | Ccl4 ΔCt value, S-CN-105 (sham + CN-105 0.05 mg/kg iv): 3.8E − 04 | Ccl5 ΔCt value, S-CN-105 (sham + CN-105 0.05 mg/kg iv): 1.1E − 03 | Ccl7 ΔCt value, S-CN-105 (sham + CN-105 0.05 mg/kg iv): 1.6E − 03 | Ccl8 ΔCt value, S-CN-105 (sham + CN-105 0.05 mg/kg iv): 2.1E − 03 | Ccl11 ΔCt value, S-CN-105 (sham + CN-105 0.05 mg/kg iv): 2.5E − 04 | Ccl12 ΔCt value, S-CN-105 (sham + CN-105 0.05 mg/kg iv): 6.5E − 03 | Ccl17 ΔCt value, S-CN-105 (sham + CN-105 0.05 mg/kg iv): 4.2E − 03 | Ccl19 ΔCt value, S-CN-105 (sham + CN-105 0.05 mg/kg iv): 2.9E − 02 | Ccl20 ΔCt value, S-CN-105 (sham + CN-105 0.05 mg/kg iv): 1.1E − 04 | Ccl22 ΔCt value, S-CN-105 (sham + CN-105 0.05 mg/kg iv): 3.8E − 04 | Ccl24 ΔCt value, S-CN-105 (sham + CN-105 0.05 mg/kg iv): 9.7E − 05 | Ccl25 ΔCt value, S-CN-105 (sham + CN-105 0.05 mg/kg iv): 1.4E − 02 | Ccr1 ΔCt value, S-CN-105 (sham + CN-105 0.05 mg/kg iv): 7.1E − 04 | Ccr2 ΔCt value, S-CN-105 (sham + CN-105 0.05 mg/kg iv): 5.5E − 04 | Ccr3 ΔCt value, S-CN-105 (sham + CN-105 0.05 mg/kg iv): 2.1E − 03 | Ccr4 ΔCt value, S-CN-105 (sham + CN-105 0.05 mg/kg iv): 6.0E − 06 | Ccr7 ΔCt value, S-CN-105 (sham + CN-105 0.05 mg/kg iv): 2.1E − 04 | Cd40lg ΔCt value, S-CN-105 (sham + CN-105 0.05 mg/kg iv): 6.9E − 05 | Cd40 ΔCt value, S-CN-105 (sham + CN-105 0.05 mg/kg iv): 8.3E − 04 | Cebpb ΔCt value, S-CN-105 (sham + CN-105 0.05 mg/kg iv): 1.1E − 01 | Crp ΔCt value, S-CN-105 (sham + CN-105 0.05 mg/kg iv): * | Csf1 ΔCt value, S-CN-105 (sham + CN-105 0.05 mg/kg iv): 1.9E − 02 | Cxcl1 ΔCt value, S-CN-105 (sham + CN-105 0.05 mg/kg iv): 1.6E − 04 | Cxcl2 ΔCt value, S-CN-105 (sham + CN-105 0.05 mg/kg iv): 2.8E − 04 | Cxcl3 ΔCt value, S-CN-105 (sham + CN-105 0.05 mg/kg iv): 2.3E − 05 | Cxcl5 ΔCt value, S-CN-105 (sham + CN-105 0.05 mg/kg iv): 2.5E − 03 | Cxcl9 ΔCt value, S-CN-105 (sham + CN-105 0.05 mg/kg iv): 1.0E − 04 | Cxcl10 ΔCt value, S-CN-105 (sham + CN-105 0.05 mg/kg iv): 1.9E − 03 | Cxcl11 ΔCt value, S-CN-105 (sham + CN-105 0.05 mg/kg iv): 9.0E − 05 | Cxcr4 ΔCt value, S-CN-105 (sham + CN-105 0.05 mg/kg iv): 6.6E − 03 | Fasl ΔCt value, S-CN-105 (sham + CN-105 0.05 mg/kg iv): 1.9E − 04 | Flt3l ΔCt value, S-CN-105 (sham + CN-105 0.05 mg/kg iv): 3.0E − 03 | Fos ΔCt value, S-CN-105 (sham + CN-105 0.05 mg/kg iv): 2.3E − 01 | Hdac4 ΔCt value, S-CN-105 (sham + CN-105 0.05 mg/kg iv): 9.1E − 02 | Ifng ΔCt value, S-CN-105 (sham + CN-105 0.05 mg/kg iv): 5.8E − 05 | Il1a ΔCt value, S-CN-105 (sham + CN-105 0.05 mg/kg iv): 1.9E − 03 | Il1b ΔCt value, S-CN-105 (sham + CN-105 0.05 mg/kg iv): 2.0E − 03 | Il1f10 ΔCt value, S-CN-105 (sham + CN-105 0.05 mg/kg iv): * | Il1r1 ΔCt value, S-CN-105 (sham + CN-105 0.05 mg/kg iv): 1.2E − 02 | Il1rap ΔCt value, S-CN-105 (sham + CN-105 0.05 mg/kg iv): 4.4E − 02 | Il1rn ΔCt value, S-CN-105 (sham + CN-105 0.05 mg/kg iv): * | Il6ra ΔCt value, S-CN-105 (sham + CN-105 0.05 mg/kg iv): 4.9E − 03 | Il6 ΔCt value, S-CN-105 (sham + CN-105 0.05 mg/kg iv): 1.1E − 04 | Il7 ΔCt value, S-CN-105 (sham + CN-105 0.05 mg/kg iv): 3.2E − 04 | Il8ra ΔCt value, S-CN-105 (sham + CN-105 0.05 mg/kg iv): * | Il8rb ΔCt value, S-CN-105 (sham + CN-105 0.05 mg/kg iv): 6.1E − 05 | Il9 ΔCt value, S-CN-105 (sham + CN-105 0.05 mg/kg iv): * | Il10rb ΔCt value, S-CN-105 (sham + CN-105 0.05 mg/kg iv): 3.0E − 02 | Il10 ΔCt value, S-CN-105 (sham + CN-105 0.05 mg/kg iv): 1.1E − 04 | Il18rap ΔCt value, S-CN-105 (sham + CN-105 0.05 mg/kg iv): 4.5E − 05 | Il18 ΔCt value, S-CN-105 (sham + CN-105 0.05 mg/kg iv): 1.8E − 01
